Assay results reported in US5436273A, “Psychoactive propargylamine derivatives used in the treatment of anxiety, psychotic states or aggression” (Lowchol Scientific, Inc., priority 1993, dated 1995).
Entries after “also recorded” stand apart in the source; their conditions may differ.

Assays:
[1] = tested on: exploratory behavior in rats; test: Inhibition of exploratory behavior in rats (hole poking); format: in vivo, Sprague-Dawley rats; conditions: rats
Protocol: 8. Inhibition of Exploratory Behavior in Rats (Hole Poking).
This test is done with Sprague-Dawley male rats of about 300 g. Activity is evaluated with a […] XYZ activity cage connected to a […] […] DCM-4. A perforated plate (16 holes of 2-5 cm diameter) is placed in the enclosure and on the activity case to register vertical activity. The number of times the rat placed his snout into the holes during a 10 minute period is recorded. The test was started 30 minutes after the interperitoneal injection of the compound to be studied.
The results which are reported in Table 8 are expressed in terms of the dose required to diminish by 50% the exploratory behavior, with reference to animals injected with the carrier only. Diazepam and buspirone are used as standards.

[2] = Plasma concentration in combative mice as a function of time; format: in vivo; conditions: 10 mg/kg i.p.
Protocol: A calibration curve is established using mouse blood plasma. Two samples are used for each concentration. The method used is as follows.
200 μl of plasma are taken and denaturated with 400 μl of acetonitrile. 500 μl of the clear liquid is taken.
A derivative is made with 50 μl of orthophthalaldehyde (0.05M) in a test tube and 25 μl of the solution is injected into a high performance liquid chromatography apparatus after 30 minutes.
3-Amino-4-pentyne is used as standard.
The following equation describes the calibration curve: […]
The concentration of compound N^o 3 in the plasma is given by the following equation: [formula] B. Evaluation in Vivo
The pharmacokinetic profile is established in combative mice.
The mice are placed together, in pairs, for 5 minutes. This pairing is performed 10, 25, 55, 85 and 115 minutes after the administration of compound N^o 3. One minute after each of the 5 minute periods of placing the animals together, three pairs of animals are anesthetized with ether and guillotined in order to determine the concentration of compound N^o 3 in the plasma. The plasma sample is prepared by centrifugation (16,000 G) of 800 μl of blood to which 50 μl of EDTA Na4 (0.1M) is added. The inhibition of aggressive behavior at the different times in which the animals are placed together and the number of pairs evaluated is shown in the following Table: […]

[3] = Vapor pressure at room temperature; format: physicochemical; conditions: free base
[4] = tested on: motor coordination (rotarod) in mice; conditions: mouse, in vivo

For `C#CC(C)N` (stereo not shown) [Compound 3, 2-Amino-3-butyne], the ED50 ([1]; Rattus norvegicus, ip, 0.5 h, i.p., 30 minutes, read-out: dose required to diminish by 50% the exploratory behavior) was 4.6 ± 2.6 mg/kg, the “inhibition of exploratory behavior (in words)” value [1] was “more potent, in this respect, than diazepam but they rapidly lose their ability to produce this effect after the first administration” and the “elimination / plasma level (in words)” value ([2]; FIG. 1) was “elimination of compound N^o 3 is very rapid; also recorded: not detectable, by the method used, 90 minutes after the injection”. The concentration at […] ([2]; mouse, plasma, ip, 15 min, N = 6, read-out: plasma concentration ± S.E.) was 4800 ± 400 µM, the concentration at 0.5 h ([2]; mouse, plasma, ip, 30 min, N = 6, read-out: plasma concentration ± S.E.) was 2000 ± 200 µM and the concentration at 1 h ([2]; mouse, plasma, ip, 60 min, N = 5, read-out: plasma concentration ± S.E.) was 900 ± 200 µM. The concentration at 1.5 h ([2]; mouse, plasma, ip, 90 min, N = 6, read-out: plasma concentration ± S.E.) was < 5 µM, the concentration at 2 h ([2]; mouse, plasma, ip, 120 min, N = 6, read-out: plasma concentration ± S.E.) was < 5 µM and the “vapor pressure (in words)” value [3] was “high vapor pressure at room temperature”. The “neurotoxicity / motor activity (in words)” value [4] was “much less neurotoxic than buspirone (rot TD50 =135 mg/kg p.o.) and diazepam”.
